Measured values as given in US10117942B2, “Photoactivatable lipid-based nanoparticles as vehicles for dual agent delivery” (The United States of America, as represented by the …, priority 2013, dated 2018).

Assays:
[1] = at physiological pH; cited from earlier work
[2] = 0.5 mg or 2.5 mg liposomal lipid
Method: As a control, mice were injected with doxorubicin in the absence of liposomes.

SMILES: CCCCCCOC(C)c1c(C)c2cc3nc(c4c5[nH]c(cc6nc(cc1[nH]2)C(C)=C6CC)c(C)c5C(=O)C4)[C@@H](CCC(=O)O)[C@@H]3C (some centres unmarked) [HPPH, 2-[1-hexyloxyethyl]-2-devinyl pyropheophorbide-a]
- log P [1]: 5.6

SMILES: COc1cccc2c1C(=O)c1c(O)c3c(c(O)c1C2=O)C[C@@](O)(C(=O)CO)C[C@@H]3O[C@H]1C[C@H](N)[C@H](O)[C@H](C)O1 [doxorubicin]
- organ uptake (fluorescence Ex=500, Em=600) [2]: no fluorescence was observed
